Data reported in PubChem BioAssay (NCI).
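Test compounds were applied to cells in 96-well plates for 48 hours at 5 doses. The concentration for 50% growth inhibition is given as GI50. At the TGI there is no net growth.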

Experiments:
Experiment in all cases: NCI-60 cell line screen, 48 h
OVCAR-8 ovarian = system: OVCAR-8 ovarian
KM20L2 colon = system: KM20L2 colon
CAKI-1 renal = system: CAKI-1 renal
HCC-2998 colon = system: HCC-2998 colon
HL-60(TB) leukemia = system: HL-60(TB) leukemia
SK-OV-3 ovarian = system: SK-OV-3 ovarian
SNB-78 CNS = system: SNB-78 CNS
SK-MEL-2 melanoma = system: SK-MEL-2 melanoma
HCT-15 colon = system: HCT-15 colon
HS 578T breast = system: HS 578T breast

| Compound | TGI (OVCAR-8 ovarian) [µM] | TGI (KM20L2 colon) [µM] | TGI (CAKI-1 renal) [µM] | TGI (HCC-2998 colon) [µM] | TGI (HL-60(TB) leukemia) [µM] | TGI (SK-OV-3 ovarian) [µM] | TGI (SNB-78 CNS) [µM] | TGI (SK-MEL-2 melanoma) [µM] | TGI (HCT-15 colon) [µM] | GI50 (OVCAR-8 ovarian) [µM] | GI50 (KM20L2 colon) [µM] | GI50 (SK-MEL-2 melanoma) [µM] | GI50 (HCC-2998 colon) [µM] | GI50 (HL-60(TB) leukemia) [µM] | GI50 (HCT-15 colon) [µM] | GI50 (SK-OV-3 ovarian) [µM] | GI50 (SNB-78 CNS) [µM] | GI50 (CAKI-1 renal) [µM] | GI50 (HS 578T breast) [µM] | TGI (HS 578T breast) [µM] |
| --- | --- | --- | --- | --- | --- | --- | --- | --- | --- | --- | --- | --- | --- | --- | --- | --- | --- | --- | --- | --- |
| O=S1(=O)C[C@@H](O)[C@H](O)CS1 | > 100 | > 100 | > 100 | > 100 | > 100 | > 100 | > 100 |  |  |  |  |  |  |  |  |  |  |  |  |  |
| CC(=O)Nc1ccc(C2[C@H]3C(=O)N(c4ccc(Cc5ccc(N6C(=O)[C@@H]7ON(c8ccccc8)C(c8ccc(NC(C)=O)cc8)[C@@H]7C6=O)cc5)cc4)C(=O)[C@H]3ON2c2ccccc2)cc1 (stereo partly specified) | > 100 | > 100 | > 100 | > 100 | > 100 | > 100 | > 100 | > 100 | > 100 |  |  |  |  |  |  |  |  |  |  |  |
| COC(=O)c1ccc(N=NN(C)CO)cc1 | > 100 | > 100 |  | > 100 | > 100 | > 100 | > 100 | > 100 | > 100 |  |  |  |  |  |  |  |  |  |  |  |
| CC(=O)/C=C/c1ccc(C2CC(C)=Nc3c(ccc4c3C(=O)c3ccccc3C4=O)N2)cc1 (stereo unspecified) | > 100 | > 100 | > 83.5 | > 100 | > 100 | > 100 | > 100 | > 100 | > 100 |  |  |  |  |  |  |  |  |  |  |  |
| CN(c1ccccc1)C(c1ccccc1)C(O)c1ccccc1 (stereo unspecified) | 36 | 35.7 | 47.7 | 38.8 | 37.7 | 52.1 | 59.6 | 31.8 | 40.3 |  |  |  |  |  |  |  |  |  |  |  |
| COc1ccc(/C=C2/C[N+](C)(C)C/C(=C/c3ccc(OC)cc3)C2=O)cc1 | > 100 | > 100 | > 100 | 31 | 44.4 | > 100 | > 100 | 71.7 | > 100 |  |  |  |  |  |  |  |  |  |  |  |
| COC(=O)c1c(CC#N)cccc1CC#N | > 100 | > 100 | > 100 | > 100 | > 100 | > 100 |  | > 100 | > 100 |  |  |  |  |  |  |  |  |  |  |  |
| CCOC(=O)CC1=CSC2=NCCN12 | > 100 | > 100 | > 100 | > 100 | > 100 | > 100 | > 100 | > 100 | > 100 |  |  |  |  |  |  |  |  |  |  |  |
| N.N.NC(CS)C(=O)[O-].NC(CS)C(=O)[O-].[Pt+4] (stereo unspecified) | > 50 | > 50 |  | > 50 | > 50 | > 50 | > 50 | > 50 | > 50 | > 50 | > 50 | > 50 | > 50 | > 50 | > 50 | > 50 | > 50 |  |  |  |
| O=C([CH-]C(=O)c1ccccc1)c1ccccc1.O=C([CH-]C(=O)c1ccccc1)c1ccccc1.[Nd+3].[OH-].[OH3+] | 38.4 | 28.8 | 40.9 | 26.6 | 8.17 | 48.2 |  | 27 | 34.1 | 4.74 | 8.45 | 9.48 | 9.11 | 1.8 | 8.5 | 14.5 |  | 13.6 |  |  |
| O=c1cc2ccccc2nn1-c1ccccc1Cl | > 100 | > 100 | > 100 | > 100 |  | > 100 | > 100 | > 100 | > 100 |  |  |  |  |  |  |  |  |  |  |  |
| CS(=O)c1ccc(COP(N)(=O)N(CCCl)CCCl)cc1 (stereo unspecified) | > 100 | > 100 | > 100 | > 100 | > 100 | > 100 | > 100 | > 100 |  |  |  |  |  |  |  |  |  |  |  |  |
| C=C1CC[C@@H]2C(C)(C)CCC[C@@]2(C)[C@@H]1Cc1cc(O)ccc1O | 15.1 | 32.8 | 22.2 | 28 | 4.67 | 6.04 | 5.25 | 6.39 | 12.3 |  |  |  |  |  |  |  |  |  |  |  |
| O=C(O)C12C3CCCC1C2CC3 (stereo unspecified) | > 100 | > 100 | > 100 |  | > 100 | > 100 | > 100 | > 100 | > 100 |  |  |  |  |  |  |  |  |  |  |  |
| CC1NOC(=O)C1N=Nc1ccccc1Cl (stereo unspecified) | > 100 | > 100 | > 100 | > 100 | 52.2 | 94.4 | > 100 | > 100 |  |  |  |  |  |  |  |  |  |  |  |  |
| O=C(O)c1cc2c(cn1)[nH]c1ccccc12 | > 100 | > 100 | > 100 | > 100 | > 100 | > 100 | > 100 |  | > 100 |  |  |  |  |  |  |  |  |  |  |  |
| Cc1nc2cccc(NCc3ccc(C(=O)NO)cc3)c2c(=O)n1-c1ccccc1 | 3.75 |  | 3.62 | 3.27 | 10.2 | 8.28 |  | 5.12 | 3.41 | 1.52 |  | 2.36 | 1.81 | 2.87 | 1.68 | 2.71 |  | 1.67 | 3.04 | > 100 |
| COC(=O)Nc1nc2ccccc2c(=O)[nH]1 | > 100 |  | > 100 | > 100 | > 100 | > 100 |  | > 100 | > 100 |  |  |  |  |  |  |  |  |  |  | > 100 |
| CCOC(=O)Oc1c(OC)cc(C(=O)O[C@@H]2C[C@@H]3CN4CCc5c([nH]c6cc(OC)ccc56)[C@H]4C[C@@H]3[C@H](C(=O)OC)[C@H]2OC)cc1OC | 21.1 |  | 48.1 | 20 | 15.1 | 27.4 |  | 28.3 | 13.2 | 4.94 |  | 12.1 | 5.06 | 3.64 | 2.86 | 14.3 |  | 13.9 | 7.09 | 55.9 |
| N=C(N)CCCCCCCCC(=N)N | > 100 |  | > 100 | > 100 | > 100 | > 100 |  | > 100 | > 100 | 10.9 |  | > 100 | 28.5 | 29.5 | 47.2 | 22.1 |  | 7.37 | 29.2 | > 100 |
| O=C(C(Br)Br)C(Br)C(Br)c1ccccc1 (stereo unspecified) | > 100 |  | 3.37 | 33 | 25.7 | 31.1 |  | 35.7 | 4.38 | 3.16 |  | 13.7 | 16.2 | 5.82 | 1.96 | 17.2 |  | 1.78 | 43.5 | > 100 |
